# Structures can show the parent of a compound that is named as a salt.
# Columns and labels:
# [1] = system: purine receptors; experiment: aequorin-mediated calcium response (flash luminescence) in transfected CHO cells; type: cell-based; conditions: ATP 10^-3 to 10^-9 M, 30 seconds after addition, EnduRen or wildtype coelenterazine as substrate (FIG. 9)
# Method: (§1) To begin with, plasmids (pcDNA MtAEQ, pcDNA Gα16, and pGL3 CRE-Renilla) were introduced into CHO cells. […] The results are graphed in FIGS. 3 and 4.
# (§2) In detail, a CHO cell line (ATCC-deposited cells) that expresses purine receptors was seeded into 10 cm^2 Petri dishes at a 1.5×10^5 cells/ml cellular concentration.
# (§3) The next day, 2.2 μg Gα16 (pcDNA Gα16), 3 μg aequorin-expressing plasmids (pcDNA MtAequorin), and 3 μg cAMP-responding Renilla luciferase plasmids (pGL3 CRE-Renilla) were transfected into each Petri dish employing 18 μL of FuGENE® 6 (by Roche Diagnostics).
# (§4) The following day, 400 μL of trypsin/EDTA solution was added to the Petri dishes, and the cells were dissociated and suspended in 13 mL of DMEM/F12 FCS nutrient broth. […] Thereafter culturing was continued, and the results six hours later of measuring the activity of Renilla luciferase with the ARVO were diagrammed (FIG. 4). […] It will be understood that, with no induction of cAMP-mediated Renilla luciferase occurring, the purine receptors were Gq-coupled GPCRs.
# Wildtype coelenterazine and, as a stable substrate, EnduRen™ were employed as luminescent substrates for enzymes, and the continuous-measurement regimes were compared. Plasmids were introduced into CHO cells. […]
# [2] = system: purine receptors; experiment: cAMP-responding (CRE) Renilla luciferase reporter assay in CHO cells expressing purine receptors; type: cell-based; conditions: ATP 10^-3 to 10^-9 M, six hours later, EnduRen substrate (FIG. 4)
# Method: as §1, §2, §3, §4
# [3] = target: dopamine receptors (D2RS) (Homo sapiens, UniProt P14416); conditions: D2RS-expressing CHO cells; dopamine 10^-3 to 10^-9 M; following day forskolin added, six hours culturing (FIG. 8)
# Method: To begin with, plasmids were introduced into dopamine-receptor (D2RS) expressing cells. Following an overnight culturing, EnduRen™ was added as a substrate, the combination was cultivated four hours, and from 10^−3 to 10^−9 M sample (dopamine) was added.
# In detail, dopamine receptors (D2RS) were transfected into a CHO cell line (ATCC-deposited cells), and, in the same manner as in Embodiment 1, Gα16, aequorin-expressing plasmids, and cAMP-responding Renilla luciferase plasmids were transfected into the stably expressing cell line and the cell suspension solution was adjusted.
# The following day, 10 μL of 10^−5 M forskolin was added, and culturing was continued for six hours. The results of measuring the activity of Renilla luciferase were diagrammed (FIG. 8). In FIG. 8, the vertical axis indicates the per-second luminescent intensity (count per second), and the horizontal axis, the dopamine concentration.
# [4] = target: serotonin receptor (5HT2A) (Homo sapiens, UniProt P28223); experiment: cAMP-responding (CRE) Renilla luciferase reporter assay in serotonin-receptor expressing CHO cells; type: cell-based; conditions: 5HT2A-expressing CHO cells; serotonin 2.5x10^-6 to 2.5x10^-12 M; culturing six hours; EnduRen substrate (FIG. 6)
# serotonin receptor (5HT2A), sequence (P28223 whole entry, species assumed): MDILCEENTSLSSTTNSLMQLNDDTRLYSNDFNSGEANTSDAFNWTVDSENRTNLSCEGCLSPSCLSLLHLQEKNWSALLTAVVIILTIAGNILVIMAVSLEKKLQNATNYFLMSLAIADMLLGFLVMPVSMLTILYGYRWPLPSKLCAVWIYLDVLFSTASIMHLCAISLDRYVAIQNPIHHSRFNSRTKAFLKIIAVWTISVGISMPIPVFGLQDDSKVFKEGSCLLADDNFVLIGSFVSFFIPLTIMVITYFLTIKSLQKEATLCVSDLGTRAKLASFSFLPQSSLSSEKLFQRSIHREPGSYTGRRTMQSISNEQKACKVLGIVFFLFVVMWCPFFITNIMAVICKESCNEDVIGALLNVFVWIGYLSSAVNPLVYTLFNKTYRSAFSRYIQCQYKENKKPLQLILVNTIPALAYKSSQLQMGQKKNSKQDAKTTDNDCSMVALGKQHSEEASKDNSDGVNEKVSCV
# Method: To begin with, plasmids (pcDNA MtAEQ, pcDNA Gα16, and pGL3 CRE-Renilla) were introduced into serotonin-receptor (5HT2A) expressing cells. Following an overnight culturing, EnduRen™ was added as a substrate, the combination was cultivated four hours, and from 2.5×10^−6 to 2.5×10^−12 M sample (serotonin) was added. For 30 seconds directly post-addition, the aequorin-mediated luminescence was continuously measured.
# In detail, a serotonin receptor (5HT2A) was transfected into a CHO cell line (ATCC-deposited cells), and, in the same manner as in Embodiment 1, Gα16, aequorin-expressing plasmids, and cAMP-responding Renilla luciferase plasmids were transfected into the stably expressing cell line and the cell suspension solution was adjusted.
# As a stable substrate, 30 μm EnduRen™ was added, and after four hours' culturing, 90 μL of the cell suspension solution was added into each well of a 96-well plate into which 10 μL serotonin hydrochloride as serotonin-receptor ligands had been added at 2.5×10^−6 to 2.5×10^−12 M concentration. Results of measuring the change in luminescent intensity for 30 seconds immediately following the suspension addition, employing the ARVO luminometer by Berthold Technologies GmbH, were diagrammed (FIG. 5). In FIG. 5, the vertical axis indicates the per-second luminescent intensity (count per second), and the horizontal axis, the measuring time (seconds). […]
# dopamine receptors (D2RS), sequence (P14416 1-414 isoform P14416-2): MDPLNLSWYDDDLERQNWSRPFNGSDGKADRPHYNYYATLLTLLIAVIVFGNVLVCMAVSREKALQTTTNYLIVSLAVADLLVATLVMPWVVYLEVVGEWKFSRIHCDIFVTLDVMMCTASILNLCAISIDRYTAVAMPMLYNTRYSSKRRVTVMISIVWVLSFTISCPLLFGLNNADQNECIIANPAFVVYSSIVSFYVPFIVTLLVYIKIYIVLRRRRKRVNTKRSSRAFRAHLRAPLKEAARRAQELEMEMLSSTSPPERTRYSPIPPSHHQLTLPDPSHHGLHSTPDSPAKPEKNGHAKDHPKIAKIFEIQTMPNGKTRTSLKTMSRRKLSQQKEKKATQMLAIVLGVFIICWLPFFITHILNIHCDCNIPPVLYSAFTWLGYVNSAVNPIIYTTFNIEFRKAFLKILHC
structure (smiles),measurement,setting,value
"Nc1ncnc2c1ncn2[C@@H]1O[C@H](COP(=O)([O-])OP(=O)([O-])OP(=O)(O)O)[C@@H](O)[C@H]1O.O.[Na+].[Na+] [ATP, adenosine 5′-triphosphate disodium hydrate]",ATP-stimulated calcium response by aequorin luminescence,[1],calcium response can be measured
same,induction of cAMP-mediated Renilla luciferase,[2],no induction
"Cl.NCCc1ccc(O)c(O)c1 [dopamine, dopamine hydrochloride]",forskolin-stimulated activity of Renilla luciferase,[3],declined
"NCCc1c[nH]c2ccc(O)cc12 [serotonin, serotonin hydrochloride]",cAMP-mediated increase in (induction of) Renilla luciferase,[4],increase in (induction of) Renilla luciferase was confirmed

# Source: US20100159449A1, “Continuous Assay Method for Measuring Receptor- and Ion Channel-Mediated Calcium Response and Subsequent Gene Expression” (NOACELL SCIENCE CO., LTD., priority 2006, published 2010)
